Experimental data: BigSolDB 2.1

N=C(Nc1ccccc1)Nc1ccccc1
solubility (mole fraction)
Details	in acetone	in acetonitrile	in ethanol	in ethyl acetate	in isobutanol	in n-butanol	in n-propanol	in toluene
273.15 K	0.0433	0.00828	0.0144	0.0278	0.0124	0.018	0.0159	0.00132
275.65 K	0.0468	0.00909	0.0156	0.03	0.0135	0.0194	0.0174	0.00154
278.15 K	0.0508	0.0101	0.017	0.0325	0.0147	0.021	0.0189	0.00172
280.65 K	0.0554	0.0111	0.0184	0.0347	0.016	0.0227	0.0204	0.00195
283.15 K	0.0599	0.0122	0.0199	0.0372	0.0176	0.0245	0.0222	0.00219
285.65 K	0.0648	0.0134	0.0217	0.0401	0.0189	0.0266	0.0238	0.00249
288.15 K	0.07	0.0147	0.0235	0.0435	0.0208	0.0286	0.0259	0.00282
290.65 K	0.0751	0.0161	0.0253	0.0463	0.0224	0.0306	0.0278	0.00316
293.15 K	0.0802	0.0179	0.0273	0.0496	0.0244	0.0329	0.0301	0.00354
295.65 K	0.0862	0.0197	0.0292	0.053	0.0265	0.0352	0.0324	0.00389
298.15 K	0.0928	0.0214	0.0315	0.0566	0.0286	0.0377	0.035	0.00432
300.65 K	0.0993	0.0234	0.0337	0.0603	0.0311	0.0405	0.0379	0.00476
303.15 K	0.106	0.0254	0.0363	0.0641	0.0333	0.0431	0.0406	0.00528
305.65 K	0.113	0.0278	0.039	0.0678	0.0359	0.0462	0.0435	0.00584
308.15 K	0.12	0.0303	0.0419	0.0719	0.0384	0.0494	0.0465	0.00641
310.65 K	0.128	0.0331	0.0448	0.0763	0.0412	0.0527	0.0499	0.00709
313.15 K	0.137	0.036	0.0483	0.0814	0.0446	0.0562	0.0537	0.00771
